In patent US20180325106A1, “METHOD OF RETARDING AN ETHYLENE RESPONSE” (CURTIN UNIVERSITY OF TECHNOLOGY, priority 2015, published 2018):
Like-named read-outs stand apart in the source and are kept apart here. Values belong to the compound of their own block, whether it stands above or below them.

How the values were obtained:
[1] = tested on: 'Tegan Blue' Japanese plum fruit; assay: Climacteric ethylene production in 'Tegan Blue' plum fruit after fumigation; format: in vivo; conditions: for level of climacteric ethylene, suppressed, fold in comparison to the solely ethylene treated fruit: then ethylene 10 μL L^-1 24 hr, 'Tegan Blue' plum, P≤0.05
Method: Mature ‘Tegan Blue’ and ‘Fortune’ Japanese plum and ‘Arctic Pride’ nectarine fruits of uniform size and maturity, free from visual blemishes and diseases were harvested in early morning from a commercial orchard in Western Australia. Following the harvest, the fruit were brought to the Horticulture Research Laboratory, Curtin University, using a temperature controlled vehicle at 20-25° C. The fruit were treated by fumigation with 0 to 100 nLL^−1 of BC and 1000 nLL^−1 of 1-MCP (Tegan Blue plum) for 18 hr at ambient conditions (20±1° C. and 65±5% RH) by using hermetically sealed plastic containers of 60 L volume. Whatman filter paper (number 2) soaked with specific concentrations of BC and 1-MCP were kept along with the fruit and 30 g of soda lime inside each container. A small battery operated fan was used to ensure equal distribution of the vapours from the chemicals. Half of the treated fruit was exposed to ethylene (10 μL L^−1) for 24 hr following BC and 1-MCP treatment.
The endogenous level of ethylene was determined by using the Sensor Sense (Sensor sense B. V, Nijmegen, The Netherlands). The Sensor Sense includes an ETD 300 ethylene detector, a set of valve controllers with an option of six valves connected to six separate cuvettes [1.0 L air-tight jar, fitted with a rubber septum (SubaSeal®, Sigma-Aldrich Co., St. Louis, USA)]. The continuous flow method was used with coarse mode (conversion factor 99818, capacity to measure ethylene concentration at 0-500 ppm, sensitivity at <1%) of analysis. Each sample was run for 20 minutes with a flow rate of 4.0 L hour^−1 and the average reading of last 15 minutes was considered to calculate the concentration of ethylene and expressed as μmol […] h^−1.
(§1) The experimental data were analysed following one-way analysis of variance (ANOVA) by using Genstat 13 (release 13.1; Lawes Agricultural Trust, Rothamsted Experimental Station, Harpenden, UK). The effects of various treatments and their interactions were assessed and least significant differences (Fisher's LSD) were calculated by F test at 5% level of significance.

[2] = tested on: 'Tegan Blue' Japanese plum fruit; assay: Climacteric respiration (CO2 production) in 'Tegan Blue' plum fruit; format: in vivo
Method: (§2) Mature ‘Tegan Blue’ and ‘Fortune’ Japanese plum and ‘Arctic Pride’ nectarine fruits of uniform size and maturity, free from visual blemishes and diseases were harvested in early morning from a commercial orchard in Western Australia. Following the harvest, the fruit were brought to the Horticulture Research Laboratory, Curtin University, using a temperature controlled vehicle at 20-25° C. The fruit were treated by fumigation with 0 to 100 nLL^−1 of BC and 1000 nLL^−1 of 1-MCP (Tegan Blue plum) for 18 hr at ambient conditions (20±1° C. and 65±5% RH) by using hermetically sealed plastic containers of 60 L volume. […]
(§3) Respiration rate was determined as carbon dioxide (CO2) production from the fruit during ripening period a using CO2 analyser. […] The respiration rate was calculated on the basis of the peak areas of 2.0 mL gas sample and CO2 standard (8.52±0.17%) and expressed as mmoL CO2 […] h^−1.
as §1

[3] = gas at room temperature; background statement; cited from earlier work
[4] = tested on: 'Arctic Pride' nectarine fruit; assay: Climacteric ethylene production in 'Arctic Pride' nectarine fruit after fumigation; format: in vivo; conditions: 50 nLL^-1 fumigation, then ethylene 10 μL L^-1
Method: as §2
The endogenous level of ethylene was determined by using the Sensor Sense (Sensor sense B. V, Nijmegen, The Netherlands). […] Each sample was run for 20 minutes with a flow rate of 4.0 L hour^−1 and the average reading of last 15 minutes was considered to calculate the concentration of ethylene and expressed as μmol […] h^−1.
as §1

[5] = tested on: 'Arctic Pride' nectarine fruit; assay: Climacteric respiration (CO2 production) in 'Arctic Pride' nectarine fruit; format: in vivo
Method: as §2, §3, §1

[6] = tested on: WX17 wax flower; assay: Flower/bud abscission in WX17 wax flower; format: in vivo, Chamelaucium Desf.; conditions: 100 nLL^-1 fumigation followed by ethylene 10 μLL^-1
Method: (§4) To evaluate the effects of BC and NC on flower abscission, flowering stems of Wax flower (Chamelaucium Desf.) (WX17, WX73 and WX107) were collected from mature bushes grown at Department of Agriculture and Food Western Australia (DAFWA), Perth (31° 58′ 55″ S/115° 51′ 47″ E). Collected stems were immediately placed upright in buckets with water and recut at 20-25 cm in length (from the cut end to the most extreme opened-flowers). The flower stalks were treated similarly as the fruits with BC (0-100 nLL^−1) or NC (0-100 nLL^−1) and ethylene. The experiments were laid out by following CRD design, having five replications for each treatment and five stalks in each replication. During the treatment period, the flower stalks were placed in small plastic bottles with distilled water. A cone made of nylon mesh was placed at the base of the stalks to check the number of abscised flowers. […]
as §1

[7] = tested on: WX73 wax flower; assay: Flower/bud abscission in WX73 wax flower; format: in vivo, Chamelaucium Desf.
Method: as §4, §1

[8] = Stability at room temperature; format: physicochemical
[9] = Solubility in water; format: physicochemical

Structure (SMILES): CC1=CC1 [1-MCP, 1-Methylcyclopropene, reference compound]
level of climacteric ethylene, suppressed, fold in comparison to the solely ethylene treated fruit ([1]; 1000 nLL^-1 fumigation 18 hr): 0.70 fold | climacteric respiration, suppressed, fold versus the solely ethylene treated fruit ([2]; 1000 μLL^-1 (so in the source) fumigation + ethylene): 0.77 fold | stability [3]: highly unstable

solubility in water [9]: only partially soluble in water
Structure (SMILES): c1ccc2c(c1)C2 [BC, benzocyclopropene]
level of climacteric ethylene, suppressed, fold in comparison to the solely ethylene treated fruit ([1]; 100 nLL^-1 fumigation 18 hr): 0.80 fold | difference between effects of BC (100 nL L^-1) and 1-MCP (1000 nL L^-1) on climacteric ethylene and respiration ([1]; 'Tegan Blue' and 'Fortune' plum, 'Arctic Pride' nectarine, ethylene and respiration): non-significant differences | level of ethylene, suppressed, fold versus the solely ethylene treated fruit [4]: 0.63 fold | climacteric respiration, suppressed, fold versus the solely ethylene treated fruit ([2]; 100 nLL^-1 fumigation + ethylene): 0.83 fold | respiration climacteric, suppression, fold in comparison to the solely ethylene treated fruit ([5]; 50 nLL^-1 fumigation + ethylene): 0.77 fold | respiration climacteric, suppression, fold in comparison to the solely ethylene treated fruit ([5]; 50 nLL^-1 fumigation, no ethylene exposure): 0.71 fold | rate of flower/bud abscission [6]: 6.05% | rate of flower/bud abscission ([7]; 50 nL L^-1 fumigation followed by ethylene): 22.43% | rate of flower/bud abscission ([7]; 100 nL L^-1 fumigation followed by ethylene): 28.40% | stability [8]: stable at room temperature for several months
